Legend:
Type in all cases: cell-based, human
[1] = test system: adhesion of AML cells (KG-1) to HUVECs; experiment: Number of adherent AML cells on HUVECs in co-culture, flow cytometric analysis; conditions: treated KG-1/HUVEC co-cultures as, in comparison to untreated controls; FIG. 15
Description: (§1) As illustrated throughout Example 1, acute myeloid leukemia (AML) cells mediate endothelial cell (EC) activation. In this Example, the effects of anti-inflammatories, namely thalidomide and lenalidomide, to prevent AML induced EC activation were tested. KG-1 cells were pre-treated with 100 μM thalidomide or 1 μM lenalidomide (half of total dose) for 1-hour. Co-cultures were then established by adding the pre-treated KG-1 cells (1×10^6 cells) to cultures containing HUVECs (˜80% confluence) with the addition of the second half of the total dose of the respective anti-inflammatories. After 24-hours, E-selectin expression on HUVECs was measured as a marker of EC activation using flow cytometry. Untreated (i.e., no anti-inflammatory added) co-cultures of KG-1 on HUVECs were used as controls. The results are shown in FIG. 14, where the + indicates whether the co-culture was the control, was treated with thalidomide, or was treated with lenalidomide.
It was determined whether thalidomide and lenalidomide were able to reduce EC activation mediated AML cell adhesion. Adherent cells were collected from treated (as described above) and control co-cultures, and the numbers of adherent AML cells in each population were enumerated based on flow cytometric analysis. […]

[2] = test system: E-selectin expression on HUVECs; experiment: E-selectin expression on HUVECs in KG-1 co-cultures, flow cytometry (marker of EC activation); conditions: KG-1/HUVEC co-culture, 24 hours; KG-1 pre-treated 1 hour with 100 μM thalidomide or 1 μM lenalidomide (half of total dose), second half added to co-culture; vs untreated co-cultures; FIG. 14
Description: as §1

HUVECs = experiment: QCM monitoring of HUVEC activation by TNF-α, with microscope observation
Description: The gold QCM consists of a thin AT-cut quartz crystal wafer with a gold electrode on each side (9 MHz, non-polished with ˜1000 Å gold, geometric area is 0.28 cm^2, Beijing Chenjing Electronics Co., Ltd., China). The gold QCM was mounted between two biocompatible silicon O-rings to allow only one side of the gold electrode to be exposed to the liquid. The reaction chamber above the crystal was held with a 1 mL chlorinated polyethylene centrifugal tube. The device, being covered, was placed in a humidified CO2 incubator controlled at 5% CO2 and 37° C. to prevent evaporation from the culture holder.
An RQCM instrument (Maxtek Inc., USA) was used to simultaneously record resonant frequency (f0) and motional resistance (R1) of the QCM electrodes.
After being sterilized with 75% ethanol under UV light for 0.5 hours, the QCM culture-chamber was washed three times with PBS. Then, 500 μL of EGM-2 medium was added and the entire culture-chamber was put into the incubator. As soon as the QCM readout reached a stable baseline, 50 μL of EGM-2 medium containing freshly trypsinized 3×10^4 cells was added. All QCM measurements were performed in a static mode without stirring. The Δf0 and ΔR1 responses were simultaneously monitored in the process of cell attachment and growth in the next 24 hours.
Next, the EGM-2 medium was replaced by a medium containing 10% FBS and TNF-α with a specified concentration (ranging from 0 ng/ml to […]), allowing the HUVECs to suffer growth and activation up to 20 hours. After the concentration of HL-60 and KG-1 cells reached 5×10^6 cells mL^−1, they were collected from the medium by centrifugation at 1500 g for 5 minutes to remove IMDM, and were re-suspended with EGM-2 medium supplemented with 10% FBS. This was performed to reduce variations of the viscosity of the medium for measurements. The density of these suspension cells was determined with a hemacytometer. […]

[3] = test system: adhesion of KG-1 cells to activated HUVECs; experiment: QCM response to KG-1 cell binding on HUVECs activated with different TNF-α concentrations; conditions: 25×10^4 KG-1 cells on HUVECs activated by TNF-α at different concentrations; FIGS. 12C, 12D
Description: Next, the EGM-2 medium was replaced by a medium containing 10% FBS and TNF-α with a specified concentration (ranging from 0 ng/ml to […]), allowing the HUVECs to suffer growth and activation up to 20 hours. After the concentration of HL-60 and KG-1 cells reached 5×10^6 cells mL^−1, they were collected from the medium by centrifugation at 1500 g for 5 minutes to remove IMDM, and were re-suspended with EGM-2 medium supplemented with 10% FBS. This was performed to reduce variations of the viscosity of the medium for measurements. The density of these suspension cells was determined with a hemacytometer.
Finally, 100 μL of the cell-suspending solution was added into the measuring chamber. The Δf0 and ΔR1 responses were simultaneously monitored for 22 hours.
These examples confirmed that AML cells adhere to activated HUVECs based on binding with E-selectin. It is possible that the extent of activation of HUVECs, which is closely related to TNF-α concentration, should have an influence on the binding of AML cells. FIGS. 12A and 12B show the QCM responses induced by the addition of KG-1 cells with the same concentration (i.e., 25×10^4) on activated HUVECs after stimulation of TNF-α with different concentrations. […]

[4] = maximum reported concentration of TNF-α (range 0 to 400 ng ml^−1), 3×10^4 HUVECs on QCM gold electrode

Molecule	numbers of adherent AML cells [1]	E-selectin expression on HUVECs [2]	activation of HUVECs (shape-change, microscope images) (HUVECs; 40, 200 and 400 ng mL^−1 TNF-α, FIGS. 5B-5D)	frequency shifts in Stage IV as compared to those in Stage I (HUVECs; [4]) [%]	resistance changes in Stage IV as compared to those in Stage I (HUVECs; [4]) [%]	QCM response shifts (|Δf0| and ΔR1 changes) on addition of KG-1 cells [3]
O=C1CCC(N2C(=O)c3ccccc3C2=O)C(=O)N1 (centres unmarked) [thalidomide]	significantly reduce	significant reduction				
Nc1cccc2c1CN(C1CCC(=O)NC1=O)C2=O (centres unmarked) [lenalidomide]	significantly reduce	significant reduction				
TNF-α			effectively induce the activation of HUVECs in a dose dependent manner	15	7	increased with enhancement of TNF-α concentrations in the range of 2 ng mL^−1-200 ng mL^−1

— US10197552B2, “Monitoring cell-to-cell interactions” (Oakland University, priority 2015, dated 2019)
